Measured values: ChEMBL document CHEMBL1201862, “PubChem BioAssay data set” (2004)
Blank lines part the entries; values can stand above or below the molecule they belong to.

Experiments:
Cytochrome P450 2D6 [1] = target: T1, Cytochrome P450 2D6 (Homo sapiens, UniProt P10635); test: qHTS Assay for Inhibitors and Substrates of Cytochrome P450 2D6. [Related pubchem assays: 410 ]; format: ADME; details: read-out: Potency
Cytochrome P450 2C9 = Cytochrome P450 2C9 (Homo sapiens, UniProt P11712); details: Potency
Sequence of Cytochrome P450 2C9 (P11712 whole entry): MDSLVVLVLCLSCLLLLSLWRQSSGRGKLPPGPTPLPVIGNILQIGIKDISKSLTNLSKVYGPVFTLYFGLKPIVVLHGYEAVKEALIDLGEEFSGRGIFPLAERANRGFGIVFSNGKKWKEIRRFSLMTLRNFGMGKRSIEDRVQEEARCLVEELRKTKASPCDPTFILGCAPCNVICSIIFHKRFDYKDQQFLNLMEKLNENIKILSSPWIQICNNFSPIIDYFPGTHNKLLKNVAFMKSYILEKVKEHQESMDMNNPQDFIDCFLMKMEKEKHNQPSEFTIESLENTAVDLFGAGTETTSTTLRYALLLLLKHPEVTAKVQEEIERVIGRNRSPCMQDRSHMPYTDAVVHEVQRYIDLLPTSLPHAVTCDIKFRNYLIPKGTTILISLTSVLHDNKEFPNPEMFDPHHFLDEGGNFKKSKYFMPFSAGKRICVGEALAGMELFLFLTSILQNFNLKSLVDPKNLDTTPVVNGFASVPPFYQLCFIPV

[2] = target: Peroxisome proliferator-activated receptor gamma/Nuclear receptor coactivator 2 (Homo sapiens, UniProt P37231); format: functional;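 further: agonist potency for raising coactivator recruitment to the receptor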
Sequence of Peroxisome proliferator-activated receptor gamma/Nuclear receptor coactivator 2 (P37231 whole entry): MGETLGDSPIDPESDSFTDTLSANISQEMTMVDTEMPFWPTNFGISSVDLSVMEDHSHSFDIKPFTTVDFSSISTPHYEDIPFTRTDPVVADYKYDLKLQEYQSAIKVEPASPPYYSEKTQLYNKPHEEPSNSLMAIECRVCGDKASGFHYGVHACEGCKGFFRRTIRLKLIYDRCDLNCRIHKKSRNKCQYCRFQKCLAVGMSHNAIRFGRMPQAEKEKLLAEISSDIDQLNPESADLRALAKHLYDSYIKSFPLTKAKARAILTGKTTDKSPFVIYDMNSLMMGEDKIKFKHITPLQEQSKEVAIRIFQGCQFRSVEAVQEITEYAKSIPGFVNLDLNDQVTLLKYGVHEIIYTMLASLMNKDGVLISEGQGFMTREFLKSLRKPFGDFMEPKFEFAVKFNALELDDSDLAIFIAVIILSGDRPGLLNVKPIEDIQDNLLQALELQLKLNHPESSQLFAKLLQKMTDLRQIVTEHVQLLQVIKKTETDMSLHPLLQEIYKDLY
Sequence of Peroxisome proliferator-activated receptor gamma/Nuclear receptor coactivator 2 (Q15596 whole entry, further chain): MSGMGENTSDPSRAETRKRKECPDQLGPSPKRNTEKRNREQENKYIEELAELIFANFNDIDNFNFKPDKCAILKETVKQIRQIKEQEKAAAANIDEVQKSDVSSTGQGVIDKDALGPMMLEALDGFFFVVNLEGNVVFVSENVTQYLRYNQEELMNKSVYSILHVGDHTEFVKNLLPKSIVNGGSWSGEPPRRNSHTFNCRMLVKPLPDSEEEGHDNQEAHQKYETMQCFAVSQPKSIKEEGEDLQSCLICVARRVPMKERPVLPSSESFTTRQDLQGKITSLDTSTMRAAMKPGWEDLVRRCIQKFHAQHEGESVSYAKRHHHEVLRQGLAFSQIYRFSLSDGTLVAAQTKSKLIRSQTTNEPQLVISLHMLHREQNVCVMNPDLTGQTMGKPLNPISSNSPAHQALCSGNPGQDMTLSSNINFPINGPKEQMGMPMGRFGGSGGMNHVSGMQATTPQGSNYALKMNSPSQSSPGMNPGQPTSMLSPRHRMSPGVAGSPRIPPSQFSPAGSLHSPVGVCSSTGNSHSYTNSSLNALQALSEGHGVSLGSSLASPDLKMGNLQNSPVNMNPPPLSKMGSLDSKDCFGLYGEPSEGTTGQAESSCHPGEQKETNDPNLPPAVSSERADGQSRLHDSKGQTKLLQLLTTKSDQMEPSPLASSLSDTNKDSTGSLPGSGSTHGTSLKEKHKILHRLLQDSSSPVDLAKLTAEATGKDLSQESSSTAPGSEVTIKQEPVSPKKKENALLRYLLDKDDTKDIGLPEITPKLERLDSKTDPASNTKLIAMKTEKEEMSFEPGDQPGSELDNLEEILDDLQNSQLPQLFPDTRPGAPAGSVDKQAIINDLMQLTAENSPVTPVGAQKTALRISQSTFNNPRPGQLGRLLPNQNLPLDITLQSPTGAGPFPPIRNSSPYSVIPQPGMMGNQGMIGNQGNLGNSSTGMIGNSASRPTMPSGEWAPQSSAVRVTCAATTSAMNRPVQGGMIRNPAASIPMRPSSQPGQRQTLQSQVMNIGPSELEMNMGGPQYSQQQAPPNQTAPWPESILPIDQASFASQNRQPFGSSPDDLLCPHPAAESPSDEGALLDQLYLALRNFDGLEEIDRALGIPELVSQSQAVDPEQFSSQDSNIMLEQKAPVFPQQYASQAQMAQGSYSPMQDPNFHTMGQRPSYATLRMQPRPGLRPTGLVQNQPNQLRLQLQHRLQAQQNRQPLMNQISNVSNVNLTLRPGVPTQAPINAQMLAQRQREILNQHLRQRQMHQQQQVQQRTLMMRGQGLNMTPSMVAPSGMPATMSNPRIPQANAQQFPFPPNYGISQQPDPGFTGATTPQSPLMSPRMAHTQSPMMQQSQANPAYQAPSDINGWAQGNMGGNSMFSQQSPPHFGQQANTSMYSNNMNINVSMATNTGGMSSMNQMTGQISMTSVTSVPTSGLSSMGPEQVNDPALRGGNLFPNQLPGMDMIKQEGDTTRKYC

[3] = target: Peroxisome proliferator-activated receptor gamma/Nuclear receptor coactivator 1 (Homo sapiens, UniProt P37231); format: functional;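 further: agonist potency as compounds enhance coactivator SRC-1 recruitment to PPARgamma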
Sequence of Peroxisome proliferator-activated receptor gamma/Nuclear receptor coactivator 1 (P37231 whole entry): as the sequence (P37231 whole entry) above
Sequence of Peroxisome proliferator-activated receptor gamma/Nuclear receptor coactivator 1 (Q15788 whole entry, further chain): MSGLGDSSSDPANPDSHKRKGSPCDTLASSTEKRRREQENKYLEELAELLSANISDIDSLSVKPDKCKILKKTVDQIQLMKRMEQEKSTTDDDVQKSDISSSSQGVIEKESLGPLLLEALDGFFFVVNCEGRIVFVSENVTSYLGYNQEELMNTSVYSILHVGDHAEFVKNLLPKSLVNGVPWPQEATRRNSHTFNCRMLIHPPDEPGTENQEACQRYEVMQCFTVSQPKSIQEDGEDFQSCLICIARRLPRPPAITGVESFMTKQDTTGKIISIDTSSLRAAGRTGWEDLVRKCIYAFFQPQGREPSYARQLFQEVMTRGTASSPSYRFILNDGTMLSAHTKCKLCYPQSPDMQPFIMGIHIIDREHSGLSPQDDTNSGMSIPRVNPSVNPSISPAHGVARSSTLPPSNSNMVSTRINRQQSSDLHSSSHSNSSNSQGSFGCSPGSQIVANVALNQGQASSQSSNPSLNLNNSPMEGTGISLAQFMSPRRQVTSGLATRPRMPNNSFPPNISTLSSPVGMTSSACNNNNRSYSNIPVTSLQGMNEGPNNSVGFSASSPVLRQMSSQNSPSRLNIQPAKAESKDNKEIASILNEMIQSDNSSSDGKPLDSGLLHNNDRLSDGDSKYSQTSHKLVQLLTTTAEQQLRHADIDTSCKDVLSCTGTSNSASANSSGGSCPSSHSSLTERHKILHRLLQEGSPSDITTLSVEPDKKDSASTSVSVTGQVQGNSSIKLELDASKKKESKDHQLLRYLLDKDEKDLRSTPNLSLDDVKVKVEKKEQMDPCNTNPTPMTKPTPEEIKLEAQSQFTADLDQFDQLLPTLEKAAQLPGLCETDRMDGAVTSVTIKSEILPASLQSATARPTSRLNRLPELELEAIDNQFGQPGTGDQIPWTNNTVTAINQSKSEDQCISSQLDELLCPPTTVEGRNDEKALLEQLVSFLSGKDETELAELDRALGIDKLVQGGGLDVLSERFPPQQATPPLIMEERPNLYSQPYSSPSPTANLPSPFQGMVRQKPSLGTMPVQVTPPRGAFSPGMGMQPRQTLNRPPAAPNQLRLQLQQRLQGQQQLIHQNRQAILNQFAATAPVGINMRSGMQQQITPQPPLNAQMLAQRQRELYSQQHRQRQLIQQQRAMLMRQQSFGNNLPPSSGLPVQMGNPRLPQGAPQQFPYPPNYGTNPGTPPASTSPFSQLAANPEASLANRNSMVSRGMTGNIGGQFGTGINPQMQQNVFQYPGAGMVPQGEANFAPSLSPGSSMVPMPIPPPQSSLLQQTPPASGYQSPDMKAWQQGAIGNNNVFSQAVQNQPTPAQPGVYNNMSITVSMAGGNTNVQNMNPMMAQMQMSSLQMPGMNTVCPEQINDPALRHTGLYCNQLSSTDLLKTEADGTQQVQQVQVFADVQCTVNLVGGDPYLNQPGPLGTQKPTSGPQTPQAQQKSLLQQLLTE

[4] = target: Peroxisome proliferator-activated receptor gamma/Nuclear receptor coactivator 3 (Homo sapiens, UniProt P37231); format: functional;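 further: agonist potency for raising coactivator recruitment to the receptor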
[5] = target: T2, Neuropeptides B/W receptor type 1 (Homo sapiens, UniProt P48145); test: Fluorescence-based dose response cell-based high throughput screening assay to identify antagonists of the G-protein coupled receptor 7 (GPR7). [Related pubchem assays: 1952 (Screening assay (GPR7 antagonists).), 1880 (Summary AID.)]; format: functional
T2 sequence (P48145 whole entry): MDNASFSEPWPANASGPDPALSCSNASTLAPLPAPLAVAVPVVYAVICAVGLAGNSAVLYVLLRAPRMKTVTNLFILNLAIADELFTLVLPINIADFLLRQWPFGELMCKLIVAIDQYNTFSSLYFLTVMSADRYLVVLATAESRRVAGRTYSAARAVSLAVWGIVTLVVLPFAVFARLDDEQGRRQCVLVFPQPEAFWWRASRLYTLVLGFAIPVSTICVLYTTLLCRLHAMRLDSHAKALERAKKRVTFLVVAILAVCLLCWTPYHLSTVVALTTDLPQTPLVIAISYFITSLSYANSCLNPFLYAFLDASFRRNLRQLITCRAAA

[6] = target: Melanin-concentrating hormone receptor 1 (Homo sapiens, UniProt Q99705); test: Fluorescence-based counterscreen for antagonists of the G-protein coupled receptor 7 (GPR7): cell-based high throughput dose response assay to identify antagonists of the melanin-concentrating hormone receptor 1 (MCHR1).; format: functional
Cytochrome P450 2D6 [7] = target: T1, Cytochrome P450 2D6

T1 sequence (P10635 whole entry): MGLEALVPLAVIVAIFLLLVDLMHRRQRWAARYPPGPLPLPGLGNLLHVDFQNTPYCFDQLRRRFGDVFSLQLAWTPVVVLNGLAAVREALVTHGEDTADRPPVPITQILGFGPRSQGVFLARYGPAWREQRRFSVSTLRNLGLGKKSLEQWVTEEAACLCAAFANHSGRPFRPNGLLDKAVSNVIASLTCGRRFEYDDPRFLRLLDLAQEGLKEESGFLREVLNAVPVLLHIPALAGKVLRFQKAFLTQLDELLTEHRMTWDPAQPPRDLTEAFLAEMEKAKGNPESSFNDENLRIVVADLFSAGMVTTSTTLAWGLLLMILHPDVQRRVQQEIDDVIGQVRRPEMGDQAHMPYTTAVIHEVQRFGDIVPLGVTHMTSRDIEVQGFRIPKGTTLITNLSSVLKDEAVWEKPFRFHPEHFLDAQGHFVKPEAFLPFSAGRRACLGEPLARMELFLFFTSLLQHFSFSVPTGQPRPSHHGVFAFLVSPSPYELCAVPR

AC50 (Cytochrome P450 2D6 [1]): 5.01 µM (inconclusive) | AC50 (Cytochrome P450 2C9): 6.31 µM (inconclusive)
SMILES: COC(=O)NC(/C(C(=O)OC)=C(\C)NCc1ccccc1)c1ccc(Cl)cc1 (stereo not drawn)

EC50 [2]: > 79.4 µM (not active) | EC50 [3]: > 79.4 µM (not active) | EC50 [4]: 67.3 µM (not active)
SMILES: S=C(NCc1ccc(Cl)cc1Cl)Nc1ccccc1

IC50 [5]: > 43.8 µM (not active) | IC50 [6]: > 43.8 µM (not active) | AC50 (Cytochrome P450 2D6 [7]): 15.8 µM (inconclusive)
SMILES: Cc1ccc(NCC(=O)N/N=C/c2ccc(OC(=O)c3ccco3)cc2)cc1
